Test results as given in patent US8716293B2, “Macrocyclic integrase inhibitors” (Janssen R&D Ireland, priority 2010, dated 2014).

What was measured:
HIV-1 SDM strain Q148R = test: cell-based HIV-1 replication assay in MT4-LTR-EGFP cells, Q148R mutant; details: fold change in activity against Q148R mutant compared to wild type HIV
Source text: (§1) MT4-LTR-enhanced green fluorescent protein (EGFP) cells were obtained by transfecting MT4 cells with a selectable construct encompassing the coding sequences for the HIV LTR as a promoter for the expression of EGFP and subsequent selection of permanently transfected cells. MT4-cytomegalovirus (CMV)-EGFP cells were obtained by selection for permanently transformed MT4 cells with a CMV-EGFP reporter gene. Cell lines were maintained in RPMI 1640 medium supplemented with 10% heat-inactivated fetal calf serum, 2 mM L-glutamine, 0.1% NaHCO3, and antibiotics (0.02% gentamicin and 0.8% G418) and incubated in a humidified incubator with a 5% CO2 atmosphere at 37° C.
(§2) N155H and Q148R mutant Integrase coding sequences were constructed in the pUC19-5′HXB2D vector (XbaI-SalI fragment of pHXB2D), containing the HIV-1 clone HXB2D IN coding sequence, by using a QuikChange site-directed mutagenesis kit (Stratagene, La Jolla, Calif.) and HPLC-purified primers (Genset Oligos, La Jolla, Calif.). Altered plasmid sequences were confirmed by dideoxyribose sequencing. For generation of site-directed mutant (SDM) virus stocks, MT4 cells were subcultured at a density of 250,000 cells/ml on the day before transfection. Cells were pelleted and resuspended in phosphate-buffered saline at a concentration of 3.1×10^6 cells/ml. A 0.8-ml portion ([…]) was used for each transfection. Transfections were performed with a Bio-Rad Gene Pulser (Bio-Rad, Hercules, Calif.) with 0.4-cm electrode cuvettes (Bio-Rad). Cells were electroporated with 10 μg of SalI-linearized pUC19-3′HXB2D (SalI-XbaI fragment of pHXB2D) and 5 μg of SalI-digested SDM at 250 μF and 300 V, followed by a 30-min incubation at room temperature. Ten ml of fresh culture medium was then added to the suspension of transfected cells, and incubation was performed at 37° C. in a humidified atmosphere with 5% CO2. Cell cultures were monitored for the appearance of cytopathic effect (CPE).
(§3) The inhibitory antiviral activity of different compounds was determined in a cell-based HIV-1 replication assay. MT4-LTR-EGFP cells (150,000 cells/ml) were infected with HIV-1 (IIIB or SDM strains Q148R, N155H, or G140S-Q148H; multiplicity of infection [MOI] of 0.0025) in the presence or absence of inhibitor. After 3 days of incubation, the inhibition of HIV replication was quantified by measuring EGFP fluorescence, and expressed as the compound concentration required for 50% inhibition of HIV-1 replication in cell culture (EC50).

HIV-1 SDM strain N155H = test: cell-based HIV-1 replication assay in MT4-LTR-EGFP cells, N155H mutant; details: fold change in activity against N155H mutant compared to wild type HIV
Source text: as §1, §2, §3

[1] = test system: HIV-1 SDM strain G140S-Q148H; test: cell-based HIV-1 replication assay in MT4-LTR-EGFP cells, G140S-Q148H mutant; details: fold change in activity against G140S-Q148H mutant compared to wild type HIV
Source text: as §1, §2, §3

HIV-1 LAI (IIIB) = test: antiviral assay in the presence of 50% human serum; type: cell-based; details: MT-4-LTR-EGFP cells, 4 days, resazurin cell viability
Method: For the antiviral assay in the presence of 50% human serum, MT-4-LTR-EGFP cells were infected with HIV-1 LAI (IIIB) at a MOI of 0.001 to 0.01 CCID50/cell in RPMI1640 medium. Following 1 h of incubation, cells were washed and plated into a 96-well plate containing serial dilutions of test compound in the presence of 10% fetal calf serum or 50% human serum. After 4 days of incubation, the EC50 in the presence of 50% human serum (EC50/HS) was determined by a cell viability assay using resazurin (as described by Fields, R. D., and M. V. Lancaster (1993) Am. Biotechnol. Lab. 11:48-50).

SMILES | FC-Q148R (HIV-1 SDM strain Q148R) | FC-N155H (HIV-1 SDM strain N155H) | FC-G140S-Q148H [1] | EC50 (HIV-1 LAI (IIIB)) [nM]
CCN1C[C@H](C)n2c(c(O)c3c(=O)n4nc(c32)N2CCN(CCCCCOc3cc(F)ccc3C4)S2(=O)=O)C1=O [Compound 2a] | 0.7 | 25.3 | 3.3 | 682
CCN1C[C@H](C)n2c(c(O)c3c(=O)n4nc(c32)N2CCN(CCCCCOc3cc(F)ccc3C4)S2(=O)=O)C1=O [Compound 2b] | 0.9 | 8.0 | 6.2 | 8
CCN1C[C@H](C)n2c(c(O)c3c(=O)n4nc(c32)N(C)S(=O)(=O)CCCOc2cc(F)ccc2C4)C1=O [Compound 8] | 3.3 | 11.7 | 11.3 | 10
CCN1C[C@H](C)n2c(c(O)c3c(=O)n4nc(c32)N(C)S(=O)(=O)[C@@H](C)CCCCOc2cc(F)ccc2C4)C1=O [Compound 9] | 0.4 | 2.0 | 1.2 | 1930
CCN1C[C@H](C)n2c(c(O)c3c(=O)n4nc(c32)N(C)S(=O)(=O)[C@H](C)CCCCOc2cc(F)ccc2C4)C1=O [Compound 10] | 0.5 | 2.8 | 1.2 | 17
CCN1C[C@H](C)n2c(c(O)c3c(=O)n4nc(c32)N(CC)S(=O)(=O)CCCCOc2cc(F)ccc2C4)C1=O [Compound 11] | 2.1 | 5.1 | 14.3 | 9
CCN1C[C@H](C)n2c(c(O)c3c(=O)n4nc(c32)N(C2CC2)S(=O)(=O)CCCCOc2cc(F)ccc2C4)C1=O [Compound 12] | 0.7 | 3.5 | 5.1 | 13
CCN1c2nn(c(=O)c3c(O)c4n(c23)[C@@H](C)CN(C(C)C)C4=O)Cc2ccc(F)cc2OCCCCS1(=O)=O [Compound 13] | 0.7 | 3.5 | 2.6 | 11
CC(C)N1C[C@H](C)n2c(c(O)c3c(=O)n4nc(c32)N(C2CC2)S(=O)(=O)CCCCOc2cc(F)ccc2C4)C1=O [Compound 14] | 1.0 | 3.5 | 4.3 | 18
CCN1C[C@H](C)n2c(c(O)c3c(=O)n4nc(c32)N(CC)S(=O)(=O)CCCCCOc2cc(F)ccc2C4)C1=O [Compound 15] | 0.5 | 3.4 | 1.4 | 33
CCN1C[C@H](C)n2c(c(O)c3c(=O)n4nc(c32)N(C2CC2)S(=O)(=O)CCCCCOc2cc(F)ccc2C4)C1=O [Compound 16] | 0.6 | 3.5 | 1.3 | 43
CCN1C[C@H](C)n2c(c(O)c3c(=O)n4nc(c32)N(C)S(=O)(=O)CCCCOc2cc(F)c(Cl)cc2C4)C1=O [Compound 17] | 0.6 | 4.7 | 1.9 | 24
CCN1C[C@H](C)n2c(c(O)c3c(=O)n4nc(c32)N(C)S(=O)(=O)CCCCCOc2cc(F)c(Cl)cc2C4)C1=O [Compound 18] | 0.8 | 4.7 | 1.8 | 47
CCN1C[C@H](C)n2c(c(O)c3c(=O)n4nc(c32)N(C)S(=O)(=O)CCCCOc2cc(F)c(F)cc2C4)C1=O [Compound 19] | 1.1 | 4.9 | 3.6 | 8
CCN1C[C@H](C)n2c(c(O)c3c(=O)n4nc(c32)N(C)S(=O)(=O)CCCCCOc2cc(F)c(F)cc2C4)C1=O [Compound 20] | 0.6 | 4.8 | 1.5 | 17
CCN1C[C@H](C)n2c(c(O)c3c(=O)n4nc(c32)N(C)S(=O)(=O)CCCCCNC(=O)c2cc(F)ccc2C4)C1=O [Compound 21] | 0.6 | 6.6 | 1.9 | 54
CCN1C[C@H](C)n2c(c(O)c3c(=O)n4nc(c32)N(C)S(=O)(=O)CCCNC(=O)c2cc(F)ccc2C4)C1=O [Compound 23] | 0.7 | 9.6 | 2.1 | 7
CCN1C[C@H](C)n2c(c(O)c3c(=O)n4nc(c32)C(=O)NCCCCOc2cc(F)ccc2C4)C1=O [Compound 24] | 4.3 | 10.4 | 179.1 | 11
CCN1C[C@H](C)n2c(c(O)c3c(=O)n4nc(c32)C(=O)NCCCCCOc2cc(Cl)ccc2C4)C1=O [Compound 25] | 0.3 | 3.5 | 3.7 | 138
CCN1C[C@H](C)n2c(c(O)c3c(=O)n4nc(c32)C(=O)NCCCCCOc2cc(F)c(Cl)cc2C4)C1=O [Compound 26] | 0.8 | 4.3 | 4.1 | 32
CCN1CCn2c(c(O)c3c(=O)n4nc(c32)C(=O)NCCCCCOc2cc(F)ccc2C4)C1=O [Compound 27] | 3.0 | 8.6 | 668.8 | 5
C[C@H]1CN(C)C(=O)c2c(O)c3c(=O)n4nc(c3n21)C(=O)NCCCCCOc1cc(F)ccc1C4 [Compound 28] | 0.9 | 4.5 | 17.0 | 14
CC(C)N1C[C@H](C)n2c(c(O)c3c(=O)n4nc(c32)C(=O)NCCCCCOc2cc(F)ccc2C4)C1=O [Compound 29] | 0.4 | 3.8 | 2.2 | 19
CCN1C[C@H](C)n2c(c(O)c3c(=O)n4nc(c32)C(=O)N(C)CCCCOc2cc(F)ccc2C4)C1=O [Compound 30] | 41.1 | 410.4 | 572.0 | 28
CCN1C[C@H](C)n2c(c(O)c3c(=O)n4nc(c32)C(=O)N(C)CCCCCOc2cc(F)c(Cl)cc2C4)C1=O [Compound 32] | 0.3 | 4.3 | 2.6 | 77
